Series [1] has as its system RPMI-8226 cells. Put plainly: Cell proliferation assay Method B, RPMI-8226. The following applies: Homo sapiens, Multiple Myeloma, 72 hours, 0.5% fetal bovine serum, CellTiter-Glo, read-out: antiproliferative activity IC50, RPMI-8226. The series is classed as cell-based. Here is the method: (§1) Cancer cell lines were plated at 5,000 to 10,000 per well in 96-well flat bottomed plates with various concentration of compounds. The cells were incubated with compounds for 72 hours in the presence of 0.5% of fetal bovine serum. Growth inhibition was accessed by adenosine triphosphate (ATP) content assay using Promega CellTiter-Glo kit. Promega CellTiter-Glo kit is an ATP monitoring system based on firefly luciferase. Briefly, 16 μl of mammalian cell lysis and substrate solution was added to 84 μl of culture medium per well to lyse the cells and stabilize the ATP. The mixture was shaken and incubated for 30 minutes and subsequently the luminescence was measured.

Series [2] has as its system HDACs (HeLa cell nuclear extracts). Briefly: HDAC enzymatic activity, Biomol Color de Lys system. The series is classed as biochemical. The method, boiled down: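 IC50 from sigmoidal dose-response fits of fluorescence (Ex 350–380, Em 440–460 nm). Compounds in DMSO dilution series incubated 1 h at 25 °C with HeLa nuclear extract HDACs and colorimetric substrate, pH 8.0 Tris/Cl buffer with NaCl, KCl, MgCl2, before developer termination.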

Series [3] concerns H1993 cells. Put plainly: Cell proliferation assay Method A (ATPlite), H1993. Format: cell-based. The following applies: Homo sapiens, NCI-H1993, 72 hours, read-out: antiproliferative activity IC50, H1993. Here is the method:
(§2) Cancer cell lines were plated at 5,000 to 10,000 per well in 96-well flat bottomed plates with various concentration of compounds. The cells were incubated with compounds for 72 hours in the presence of 0.5% of fetal bovine serum. Growth inhibition was accessed by adenosine triphosphate (ATP) content assay using Perkin Elmer ATPlite kit. ATPlite is an ATP monitoring system based on firefly luciferase. Briefly, 25 μl of mammalian cell lysis solution was added to 50 μl of phenol red-free culture medium per well to lyse the cells and stabilize the ATP. 25 μl of substrate solution was then added to the well and subsequently the luminescence was measured.
On the technique in general: ATP-based viability assays read luminescence as a measure of living cells.

The subject of series [4] is Sk-Mel-28 cells. Put plainly: Cell proliferation assay Method B, Sk-Mel-28. Format: cell-based. The following applies: Homo sapiens, Melanoma, 72 hours, read-out: antiproliferative activity IC50, Sk-Mel-28. Here is the method: as §1
Series [5] has as its system Sk-Mel-28 cells. Put plainly: Cell proliferation assay Method A (ATPlite), Sk-Mel-28. Format: cell-based. As to conditions: Homo sapiens, 72 hours, read-out: antiproliferative activity IC50, Sk-Mel-28. Here is the method: as §2
In series [6] the test system is H1993 cells. Put plainly: Cell proliferation assay Method B, H1993. The series is classed as cell-based. As to conditions: Homo sapiens, NCI-H1993; NSCLC; H1993; 72 hours, 0.5% fetal bovine serum, CellTiter-Glo; read-out: antiproliferative activity IC50, H1993. Here is the method: as §1
The test system of series [7] is BT474 cells. Put plainly: Cell proliferation assay Method B, BT474. The series is classed as cell-based. As to conditions: Homo sapiens, BT-474, 72 hours, read-out: antiproliferative activity IC50, BT474. Here is the method: as §1
Series [8] concerns BT-474 cells. Briefly: Cell proliferation assay Method A (ATPlite), BT-474. Format: cell-based. The following applies: Homo sapiens, 72 hours, read-out: antiproliferative activity IC50, BT-474. Here is the method: as §2
For series [9], the system named is HCT-118 cells. Put plainly: Cell proliferation assay Method A (ATPlite), HCT-118. Format: cell-based. The following applies: 72 hours, read-out: antiproliferative activity IC50, HCT-118. Here is the method:
as §2

The test system of series [10] is U87MG cells. Briefly: Cell proliferation assay Method B, U87MG. The series is classed as cell-based. The following applies: Homo sapiens, U-87 MG; Glioblastoma; U87MG; 72 hours, 0.5% fetal bovine serum, CellTiter-Glo; read-out: antiproliferative activity IC50, U87MG. Here is the method: as §1
Series [11] concerns MDA-MB-468 cells. Briefly: Cell proliferation assay Method B, MDA-MB-468. Format: cell-based. The following applies: Homo sapiens, 72 hours, 0.5% fetal bovine serum, CellTiter-Glo, read-out: antiproliferative activity IC50, MDA-MB-468. Here is the method:
as §1

The subject of series [12] is H1975 cells. Put plainly: Cell proliferation assay Method B, H1975. The series is classed as cell-based. As to conditions: Homo sapiens, NCI-H1975; NSCLC; H1975; 72 hours, 0.5% fetal bovine serum, CellTiter-Glo; read-out: antiproliferative activity IC50, H1975. Here is the method: as §1
Series [13] relates to HCC1937 cells. Put plainly: Cell proliferation assay Method B, HCC1937. Format: cell-based. As to conditions: Homo sapiens, 72 hours, 0.5% fetal bovine serum, CellTiter-Glo, read-out: antiproliferative activity IC50, HCC1937. Here is the method:
as §1

The subject of series [14] is A375 cells. Briefly: Cell proliferation assay Method B, A375. As to conditions: Homo sapiens, A-375; Melanoma; Method B; 72 hours; read-out: antiproliferative activity IC50, A375. Format: cell-based. Here is the method:
as §1

[15] abbreviates: Sk-Mel-28, 0.5% fetal bovine serum, CellTiter-Glo.
Setting [16] is: BT474, 0.5% fetal bovine serum, CellTiter-Glo.

pIC50: −log10 of the molar value. Like-named read-outs stand apart in the source and are kept apart here. Bounds are passed on as bounds.

Turning to `C[C@H](O)c1cccc(-c2nc(N3CCOCC3)c3sc(CN(C)c4ncc(C(=O)NO)cn4)cc3n2)c1` [Compound 296, (S)—N-Hydroxy-2-(((2-(3-(1-hydroxyethyl)phenyl)-4-morpholinothieno[3,2-d]pyrimidin-6-yl)methyl)(methyl)amino)pyrimidine-5-carboxamide], the melting point (usually the temperature of the solid-liquid transition) is 168 to 172 °C. For the same compound, in [1], the negative logarithm of the IC50 (pIC50) (commonly the IC50 on a negative log10 scale, so that one unit is a factor of ten) is more than 8.00. In series [2], the pIC50 is more than 7.00.

Compound `Cc1nc(N)ncc1-c1nc(N2CCOCC2)c2sc(CN(C)c3ncc(C(=O)NO)cn3)cc2n1` [Compound 125, 2-(((2-(2-amino-4-methylpyrimidin-5-yl)-4-morpholinothieno[3,2-d]pyrimidin-6-yl)methyl)(methyl)amino)-N-hydroxypyrimidine-5-carboxamide] registered a melting point of 195 to 198 °C. In addition, in series [3], the pIC50 is 6.00 to 7.00. Moreover, in series [4] (setting [15]), the pIC50 was 6.00 to 7.00. Besides, the pIC50 in series [5] is 6.00 to 7.00. Besides, in series [6], the pIC50 is 6.00 to 7.00. Further, the pIC50 in [7] (setting [16]) is 7.00 to 8.00. The same compound showed a pIC50 in [2] of more than 7.00. Besides, the pIC50 in series [8] was more than 7.00. In addition, the pIC50 in series [9] is more than 7.00.

`CN(Cc1cc2nc(-c3ccc(N)cc3Cl)nc(N3CCOCC3)c2s1)c1ncc(C(=O)NO)cn1` [Compound 284, 2-(((2-(4-Amino-2-chlorophenyl)-4-morpholinothieno[3,2-d]pyrimidin-6-yl)methyl)(methyl)amino)-N-hydroxypyrimidine-5-carboxamide] displayed a melting point of 179 to 183 °C. Further, the pIC50 in series [1] is more than 8.00. Besides, the pIC50 in series [2] is more than 7.00.

`CN(Cc1cc2nc(-c3cccc4[nH]ncc34)nc(N3CCOCC3)c2s1)c1ncc(C(=O)NO)cn1` [Compound 54, 2-(((2-(1H-indazol-4-yl)-4-morpholinothieno[3,2-d]pyrimidin-6-yl)methyl)(methyl)amino)-N-hydroxypyrimidine-5-carboxamide] gave a melting point of 197 to 200 °C. Besides, the pIC50 in [3] was more than 7.00. Besides, in series [4] (setting [15]), the pIC50 was 7.00 to 8.00. Also, the negative-log IC50 (pIC50) in series [5] is more than 7.00. For the same compound, the pIC50 in [6] is 7.00 to 8.00. In [10], the pIC50 was 7.00 to 8.00. Moreover, in series [11], the pIC50 was more than 8.00. Besides, the pIC50 in series [12] was 7.00 to 8.00. For the same compound, in series [7] (setting [16]), the pIC50 was more than 8.00. This compound also gave a pIC50 in series [2] of more than 7.00. Further, the pIC50 in [13] was 7.00 to 8.00. In addition, the pIC50 in [8] is more than 7.00. For the same compound, in series [9], the negative logarithm of the IC50 (pIC50) is more than 7.00.

Compound `CN(C)c1ncc(-c2nc(N3CCOCC3)c3sc(CN(C)c4ncc(C(=O)NO)cn4)cc3n2)cn1` [Compound 117, 2-(((2-(2-(dimethylamino)pyrimidin-5-yl)-4-morpholinothieno[3,2-d]pyrimidin-6-yl)methyl)(methyl)amino)-N-hydroxypyrimidine-5-carboxamide] showed a melting point of 200 to 206 °C. The pIC50 in [3] was more than 7.00. Moreover, the pIC50 in series [5] was more than 7.00. The compound also showed a pIC50 in series [2] of more than 7.00. Further, the pIC50 in series [8] was more than 7.00. Also, the negative-log IC50 (pIC50) in series [9] was more than 7.00.

Compound `CNc1ccc(-c2nc(N3CCOCC3)c3sc(C(=O)NCC4CCN(c5ncc(C(=O)NO)cn5)CC4)cc3n2)cn1` [Compound 308, N-((1-(5-(Hydroxycarbamoyl)pyrimidin-2-yl)piperidin-4-yl)methyl)-2-(6-(methylamino)pyridin-3-yl)-4-morpholinothieno[3,2-d]pyrimidine-6-carboxamide] registered a melting point of 215 to 218 °C. In [1], the pIC50 was 6.00 to 7.00. Further, the pIC50 in series [2] was more than 7.00.

Consider `O=C(NO)c1cnc(NCc2cc3nc(-c4cccc5[nH]ncc45)nc(N4CCOCC4)c3s2)nc1` [Compound 53, 2-((2-(1H-indazol-4-yl)-4-morpholinothieno[3,2-d]pyrimidin-6-yl)methylamino)-N-hydroxypyrimidine-5-carboxamide], for which the melting point is 234 to 237 °C. In [3], the pIC50 is 6.00 to 7.00. For the same compound, in [5], the pIC50 is 6.00 to 7.00. Further, the pIC50 in [2] is more than 7.00. The pIC50 in series [8] is more than 7.00. Also, in series [9], the pIC50 is 6.00 to 7.00.

For the compound `CC(c1cc2nc(-c3cccc4[nH]ncc34)nc(N3CCOCC3)c2s1)N(C)c1ncc(C(=O)NO)cn1` (stereo not drawn) [Compound 70], the pIC50 in series [3] is more than 7.00; in series [4] (SK-MEL-28, Method B), 6.00 to 7.00; in series [5] it was more than 7.00; in series [7] (Breast, Method B), more than 8.00; in series [2], more than 7.00; in series [8] it was more than 7.00. The pIC50 in series [9] is more than 7.00.

Consider `CC(O)c1cccc(-c2nc(N3CCOCC3)c3sc(CN(C)c4ncc(C(=O)NO)cn4)cc3n2)c1` (stereo not drawn) [Compound 294, N-Hydroxy-2-(((2-(3-(1-hydroxyethyl)phenyl)-4-morpholinothieno[3,2-d]pyrimidin-6-yl)methyl)(methyl)amino)pyrimidine-5-carboxamide], for which the pIC50 in series [4] (setting [15]) was more than 8.00; in [1], more than 8.00; in [2] it was more than 7.00.

As for `CN(Cc1cc2nc(-c3cc(O)ccc3F)nc(N3CCOCC3)c2s1)c1ncc(C(=O)NO)cn1` [Compound 292, 2-(((2-(2-Fluoro-5-hydroxyphenyl)-4-morpholinothieno[3,2-d]pyrimidin-6-yl)methyl)(methyl)amino)-N-hydroxypyrimidine-5-carboxamide], the melting point lay within 250 to 255 °C. In [2], the pIC50 is more than 7.00. Further, the pIC50 in series [14] is more than 8.00.

Compound `CN(Cc1cc2nc(-c3cccc(OCCO)c3)nc(N3CCOCC3)c2s1)c1ncc(C(=O)NO)cn1` [Compound 289, 2-({2-[3-(2-Hydroxy-ethoxy)-phenyl]-4-morpholin-4-yl-thieno[3,2-d]pyrimidin-6-ylmethyl}-methyl-amino)-pyrimidine-5-carboxylic acid hydroxyamide] registered a melting point of 148 to 152 °C. Besides, the pIC50 in series [4] (setting [15]) is more than 8.00. Also, the pIC50 in [1] was more than 8.00. The pIC50 in series [2] is more than 7.00.

The values are drawn from patent publication US8906909B2 (Curis, Inc., priority 2009, dated 2014).
